How the values were obtained:
Assay type in all cases: toxicity, cell-based
[1] = system: HEK-293T; experiment: Incucyte cell viability with HEK293T; conditions: human, 10 µM, compound concentration 10 uM
[2] = system: Fibroblast; experiment: Incucyte cell viability with human fibroblast; conditions: 10 µM, compound concentration 10 uM
[3] = system: U2OS; experiment: Incucyte cell viability with U2OS; conditions: human, 10 µM, compound concentration 10 uM
[4] = 0 h, replicate number 1, timepoint 0 hours
[5] = 0 h, replicate number 2, timepoint 0 hours
[6] = 24 h, replicate number 2, timepoint 24 hours
[7] = 6 h, replicate number 1, timepoint 6 hours
[8] = 12 h, replicate number 1, timepoint 12 hours
[9] = 18 h, replicate number 1, timepoint 18 hours
[10] = 24 h, replicate number 1, timepoint 24 hours
[11] = 6 h, replicate number 2, timepoint 6 hours
[12] = 12 h, replicate number 2, timepoint 12 hours
[13] = 18 h, replicate number 2, timepoint 18 hours

Measured: Growth Rate
Also: filed as whole numbers so only -1 and 0 and 1 occur.

CC1=C(C#N)C(c2ccc3c(c2)c(NC(=O)c2ccccc2C)nn3C)C(C#N)=C(C)N1 [BAY-974]
0: [1]; [4] | [2]; [5] | [3]; [5] | [3]; [11] | [3]; [12]
1: [1]; [5] | [1]; [6] | [2]; [7] | [2]; [8] | [2]; [9] | [2]; [10] | [3]; [7] | [3]; [8] | [3]; [9] | [3]; [10]

CCCOc1ccc([C@@H]2[C@@H](C(=O)O)[C@H](c3ccc4c(c3)OCO4)CN2CC(=O)Nc2c(CC)cccc2CC)cc1 [A-1806262]
0: [1]; [4] | [1]; [6] | [2]; [4] | [2]; [11] | [2]; [12] | [2]; [13] | [2]; [6] | [3]; [4] | [3]; [11] | [3]; [13] | [3]; [6]
1: [1]; [7] | [1]; [8] | [1]; [9] | [1]; [10] | [2]; [5] | [2]; [7] | [2]; [8] | [2]; [9] | [2]; [10] | [3]; [7] | [3]; [8] | [3]; [9] | [3]; [10]

CC(C)NCC(O)c1ccc(N)c(C#N)c1 (configuration not stated) [CIMATEROL]
1: [1]; [11] | [1]; [12] | [1]; [13] | [2]; [12] | [2]; [6] | [3]; [7] | [3]; [8] | [3]; [13] | [3]; [10]
0: [1]; [4] | [1]; [7] | [1]; [8] | [1]; [9] | [1]; [10] | [2]; [4] | [2]; [13] | [3]; [4] | [3]; [9] | [3]; [6]

O=C(c1ccc(F)c(F)c1Nc1ccc(I)cc1F)N1CC(O)([C@@H]2CCCCN2)C1 [COBIMETINIB]
1: [1]; [13] | [1]; [10] | [2]; [10] | [3]; [11]
0: [1]; [7] | [1]; [12] | [1]; [6] | [3]; [4] | [3]; [7] | [3]; [8] | [3]; [9] | [3]; [10]

CCNC(=O)c1cc2c(N3CCOC[C@@H]3C)ccnc2[nH]1
0: [1]; [5] | [1]; [7] | [1]; [8] | [1]; [9] | [1]; [10] | [2]; [4] | [2]; [7] | [2]; [12] | [2]; [13] | [2]; [6] | [3]; [11] | [3]; [8] | [3]; [9] | [3]; [10]
1: [1]; [4] | [2]; [11] | [2]; [8] | [2]; [9] | [2]; [10] | [3]; [4] | [3]; [7]

Cc1cnc(-c2cc(Cl)ccc2F)cc1-n1c(=O)n(CC(N)=O)c2cnccc21 [TP-008]
0: [1]; [4] | [2]; [5] | [2]; [8] | [2]; [9] | [2]; [6] | [3]; [5] | [3]; [8] | [3]; [9]
1: [1]; [5] | [1]; [11] | [1]; [12] | [1]; [6] | [2]; [7] | [2]; [12] | [2]; [13] | [2]; [10] | [3]; [7] | [3]; [12] | [3]; [13] | [3]; [10]

O=C(NC[C@H](O)CN1CCc2ccccc2C1)c1ccnc(NC2CCC2)c1
0: [1]; [5] | [2]; [5] | [2]; [7] | [2]; [8] | [2]; [9] | [3]; [5] | [3]; [7] | [3]; [8] | [3]; [9] | [3]; [10]
1: [1]; [4] | [1]; [6] | [2]; [12] | [2]; [13] | [2]; [10] | [3]; [4] | [3]; [11] | [3]; [12] | [3]; [13] | [3]; [6]

CCN(CC)CCCCC1CCN(CC(=O)N2c3ccccc3C(=O)Nc3cccnc32)CC1
0: [1]; [4] | [2]; [4] | [3]; [4] | [3]; [11] | [3]; [13] | [3]; [6]
1: [1]; [7] | [1]; [8] | [1]; [9] | [1]; [10] | [2]; [5] | [2]; [8] | [2]; [9] | [2]; [10] | [3]; [8] | [3]; [9] | [3]; [10]

N#CC1(c2ccccn2)CCN(Cc2cc(C(=O)N3CCCC3)c(=O)n3ccccc23)CC1 [MSD-M1PAM-NC]
1: [1]; [4] | [1]; [7] | [2]; [11] | [2]; [8] | [2]; [9] | [3]; [6]
0: [1]; [5] | [1]; [11] | [1]; [8] | [1]; [9] | [1]; [10] | [2]; [4] | [2]; [13] | [2]; [10] | [3]; [5] | [3]; [8] | [3]; [9] | [3]; [10]

C[C@@H]1CCc2ncc(F)cc2[C@H]2CCCN2c2ccn3ncc(c3n2)C(=O)N1 [SELITRECTINIB]
1: [1]; [5] | [1]; [13] | [2]; [7] | [2]; [8] | [2]; [9] | [2]; [10] | [3]; [4] | [3]; [8] | [3]; [10]
0: [1]; [4] | [1]; [7] | [1]; [8] | [1]; [9] | [1]; [10] | [2]; [5] | [2]; [11] | [2]; [12] | [2]; [13] | [2]; [6] | [3]; [7] | [3]; [12] | [3]; [9] | [3]; [6]

O=C(O)COc1cccc(CN(Cc2ccc(-n3cccn3)cc2)S(=O)(=O)c2cccnc2)c1
1: [1]; [7] | [1]; [8] | [1]; [9] | [1]; [10] | [2]; [4] | [2]; [8] | [2]; [9] | [2]; [10] | [3]; [8] | [3]; [9] | [3]; [10]
0: [1]; [4] | [2]; [7] | [3]; [4] | [3]; [11] | [3]; [12] | [3]; [13] | [3]; [6]

COc1ccc(COc2ccc(Cc3cnc(N)nc3N)cc2OC)cc1 [GW632580X]
0: [1]; [7] | [1]; [8] | [1]; [9] | [1]; [10] | [2]; [11] | [2]; [12] | [2]; [13] | [2]; [6] | [3]; [4] | [3]; [7] | [3]; [12] | [3]; [13] | [3]; [6]
1: [2]; [4] | [2]; [7] | [2]; [8] | [2]; [9] | [2]; [10] | [3]; [8] | [3]; [9] | [3]; [10]

CCCCN(CCCC)C(=O)CN1C[C@@H](c2cc(OC)c3c(c2)OCO3)[C@H](C(=O)O)[C@H]1CC(C)(C)CCC [A-545]
1: [3]; [12]
0: [1]; [7] | [1]; [8] | [1]; [9] | [1]; [10] | [2]; [7] | [2]; [8] | [2]; [9] | [2]; [10] | [3]; [4] | [3]; [7] | [3]; [8] | [3]; [9] | [3]; [10]

CN(C)CCCn1cc(C2=C(c3c[nH]c4ccccc34)C(=O)NC2=O)c2ccccc21 [GF-109203]
1: [1]; [5] | [2]; [8] | [2]; [13] | [3]; [8]
0: [1]; [4] | [1]; [7] | [1]; [8] | [1]; [9] | [1]; [10] | [2]; [4] | [2]; [9] | [2]; [10] | [3]; [5] | [3]; [9] | [3]; [10]
